Data: the NIST ThermoML archive (doi:10.1016/j.fluid.2015.03.031)
Numbers after ± are expanded uncertainties.

Test: cn = amount concentration of the nth substance listed, in mol/dm3
Settings: 101 kPa, Liquid; for viscosity: Capillary tube (Ostwald / Ubbelohde) method; for mass density: Pycnometric method

NCCCC[C@H](N)C(=O)[O-].[K+] [potassium L-lysinate] + O
Settings	mass density, 298 K [kg/m3]	mass density, 308 K [kg/m3]	mass density, 313 K [kg/m3]	viscosity, 298 K [mPa·s]	viscosity, 308 K [mPa·s]	viscosity, 313 K [mPa·s]
c1 = 0.5	1038.6 ± 0.3	1036.3 ± 0.3	1030.7 ± 0.4	1.162 ± 0.047	0.9848 ± 0.04	0.894 ± 0.036
c1 = 1.5	1108.9 ± 0.4	1107.5 ± 0.4	1105.1 ± 0.4	2.284 ± 0.092	1.905 ± 0.077	1.686 ± 0.068
c1 = 2.5	1173.8 ± 0.4	1171.1 ± 0.4	1168.8 ± 0.4	3.165 ± 0.13	2.653 ± 0.11	2.416 ± 0.098
